{"source": "patent US20090143417A1", "about": "“METHODS OF TREATING PAIN” (The University of Queensland, priority 2004, published 2009)", "test_system": "naïve rats"}
{"smiles": "CN1CC[C@]23c4c5ccc(O)c4O[C@H]2[C@@H](O)C=C[C@H]3[C@H]1C5", "note": "[morphine]", "values": [{"measurement": "percent of the maximal pain relief effect", "setting": "morphine ED20 dose 2.8 μmol/kg s.c. alone (FIG. 1)", "value": 20, "unit": "%"}, {"measurement": "pain relief from a noxious thermal stimulus using the tail flick test", "setting": "morphine single bolus 10 μmol/kg s.c., at one hour, naïve rats (FIG. 1)", "value": "near maximal pain relief"}, {"measurement": "ED20 of morphine (antinociception, tail flick)", "setting": "s.c., naïve rats", "value": "~2.8", "unit": "µmol/kg"}, {"measurement": "peak levels of antinociception, % of the maximum possible effect", "setting": "single s.c. bolus administered alone: 2 at 0.04 nmol/kg, morphine at 2.8 μmol/kg", "value": 21, "unit": "% NPE"}]}
